Measurements from patent US7858635B2 (priority 2005, dated 2010).
Read-outs that look alike come from different tables or passages of the source.

What was measured:
[1] = molecular target: T1, M1 muscarinic receptor (Homo sapiens, UniProt P11229); test: Functional mobilization of intracellular calcium (FLIPR, Fluo-3), M1-CHO cells; type: cell-based; conditions: for Emax / M1 Efficacy: 100% efficacy is the maximum response obtained with the Carbachol control; for Emax: read-out: M1 Efficacy
T1 construct: expressed in transfected cells; host or cells: CHO cells (M1-CHO, under zeocin and G418 selection)
T1 sequence (P11229 1-460): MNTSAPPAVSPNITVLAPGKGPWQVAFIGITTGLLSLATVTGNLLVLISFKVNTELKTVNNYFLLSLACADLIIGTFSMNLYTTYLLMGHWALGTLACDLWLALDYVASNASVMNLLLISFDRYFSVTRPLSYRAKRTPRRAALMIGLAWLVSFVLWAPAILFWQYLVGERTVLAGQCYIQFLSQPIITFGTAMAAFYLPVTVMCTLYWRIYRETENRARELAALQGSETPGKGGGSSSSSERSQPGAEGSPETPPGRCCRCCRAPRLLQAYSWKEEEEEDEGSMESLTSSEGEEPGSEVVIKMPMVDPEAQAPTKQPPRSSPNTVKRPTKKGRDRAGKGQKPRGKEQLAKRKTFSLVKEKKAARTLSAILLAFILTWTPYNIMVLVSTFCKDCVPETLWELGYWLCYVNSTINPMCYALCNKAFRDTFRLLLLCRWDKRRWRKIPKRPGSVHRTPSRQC
How it was run: (§1)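 Fluo-3 read-out, ex 488/em 540 nm, 60 sec on FLIPR 3. For agonist mode, compound added directly; for inhibition, 15 min compound pre-incubation before carbachol at EC80 (added as a 3× solution), or co-application. Buffer pH 7.4 with 1 mM probenecid; DMSO 0.5%.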

[2] = molecular target: T2, M4 muscarinic receptor (Homo sapiens, UniProt P08173); test: Functional mobilization of intracellular calcium (FLIPR, Fluo-3), M4-CHO cells; type: cell-based; conditions: for Emax / M4 Efficacy: 100% efficacy is the maximum response obtained with the Carbachol control; for Emax: read-out: M4 Efficacy
T2 construct: expressed in transfected cells; host or cells: CHO cells (M4-CHO, under puromycin, zeocin and blasticidin selection)
T2 sequence (P08173 1-479): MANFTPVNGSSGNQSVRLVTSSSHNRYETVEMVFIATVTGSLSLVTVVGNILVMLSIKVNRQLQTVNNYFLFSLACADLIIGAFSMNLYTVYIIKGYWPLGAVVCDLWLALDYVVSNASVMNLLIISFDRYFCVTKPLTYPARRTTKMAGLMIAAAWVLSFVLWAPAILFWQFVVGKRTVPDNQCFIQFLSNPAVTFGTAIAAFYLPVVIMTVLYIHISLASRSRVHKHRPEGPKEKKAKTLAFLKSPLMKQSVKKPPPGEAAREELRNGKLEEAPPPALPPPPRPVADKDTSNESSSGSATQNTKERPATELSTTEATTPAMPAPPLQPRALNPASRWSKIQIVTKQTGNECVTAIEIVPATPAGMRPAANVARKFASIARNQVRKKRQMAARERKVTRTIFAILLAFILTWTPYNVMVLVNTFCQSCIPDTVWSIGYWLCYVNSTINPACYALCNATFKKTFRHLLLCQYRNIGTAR
How it was run: as §1

[3] = compound nos. 1-454, M1-CHO cells, calcium mobilization
[4] = compound nos. 1-454, M4-CHO cells, calcium mobilization

Compound | Emax ([1]; compound nos. 1-454) | M1 Activity [1, 3] | Emax ([2]; compound nos. 1-454) | M4 Activity [2, 4] | further results
CCOC(=O)N(C)[C@H]1CC2(CCN(C[C@H]3C[C@H]4CC[C@H]3C4)CC2)c2ccccc21 [compound 347] | 65 to 85% | +++ (activity was measured to be less than or equal to 0.7 μM) | > 70% | ++ (activity was measured to be between 0.1 μM and 4.0 μM) | 
Clc1ccc2c(c1)C1(CCN(C3CCCCCC3)CC1)CN2 [compound 333] | < 65% | + (activity was measured to be greater than or equal to 3.0 μM) | < 55% | + (activity was measured to be greater than or equal to 4.0 μM) | 
Fc1ccc2c(c1)C1(CCN(C[C@H]3C[C@H]4CC[C@H]3O4)CC1)CN2 [compound 300] | 65 to 85% | ++ (activity was measured to be between 0.7 μM and 3.0 μM) | < 55% | + (activity was measured to be greater than or equal to 4.0 μM) | 
CC(=O)N1CC2(CCN(C3CCOCC3)CC2)c2cc(F)ccc21 [compound 268] | < 65% | + (activity was measured to be greater than or equal to 3.0 μM) | < 55% | + (activity was measured to be greater than or equal to 4.0 μM) | 
Clc1ccc2c(c1)C1(CCN(C3CC4CCC(C4)C3)CC1)CN2 (centres unmarked) [compound 85] | 65 to 85% | +++ (activity was measured to be less than or equal to 0.7 μM) | 55 to 70% | ++ (activity was measured to be between 0.1 μM and 4.0 μM) | 
c1ccc2c(c1)NCC21CCN(CC2CCCCC2)CC1 [compound 342] | 65 to 85% | +++ (activity was measured to be less than or equal to 0.7 μM) | 55 to 70% | ++ (activity was measured to be between 0.1 μM and 4.0 μM) | 
CC(C)OC(=O)N1C2CCC1CC(N1CCC3(CC1)CN(C(=O)OC1CCC1)c1ccc(F)cc13)C2 (centres unmarked) [compound 166] | > 85% | +++ (activity was measured to be less than or equal to 0.7 μM) | > 70% | + (activity was measured to be greater than or equal to 4.0 μM) | 
COC(=O)N1CCCC(N2CCC3(CC2)CN(C(C)=O)c2ccc(F)cc23)CC1 (centres unmarked) [compound 132] | > 85% | +++ (activity was measured to be less than or equal to 0.7 μM) | > 70% | +++ (activity was measured to be less than or equal to 0.1 μM) | 
CC(C)OC(=O)N1C2CCC1CC(N1CCC3(CC1)CN(C(=O)O[C@@H]1CCOC1)c1ccc(F)cc13)C2 (some centres unmarked) [compound 402] |  |  |  |  | M1 Activity ([1]; compound nos. 1-454): ++ (activity was measured to be between 0.7 μM and 3.0 μM); M1 Efficacy ([1]; compound nos. 1-454): ++ (efficacy was calculated to be between 85% and 65%); M4 Activity ([2]; compound nos. 1-454): + (activity was measured to be greater than or equal to 4.0 μM); M4 Efficacy ([2]; compound nos. 1-454): + (efficacy was calculated to be 55% or less)
CN(C)C(=O)N1CC2(CCN(C3CCN(c4cncc(-c5ccccc5O)n4)CC3)CC2)c2ccccc21 [compound 481] |  |  |  |  | Emax ([1]; compound nos. 455-509): < 25%; M1 Activity ([1]; compounds 455-509): +++ (activity was measured to be less than or equal to 2.0 μM); Emax ([2]; compound nos. 455-509): < 25%; M4 Activity ([2]; compounds 455-509): ++ (activity was measured to be between 2.0 μM and 5.0 μM)
O=C1Nc2ccccc2C12CCN(CC1CC3C=CC1C3)CC2 (centres unmarked) [compound 7] | 65 to 85% | +++ (activity was measured to be less than or equal to 0.7 μM) | > 70% | ++ (activity was measured to be between 0.1 μM and 4.0 μM) | 
CS(=O)(=O)N1CC2(CCN(C3CC4CCC(C3)N4C(=O)O[C@@H]3CCOC3)CC2)c2cc(F)ccc21 (some centres unmarked) [compound 16] | 65 to 85% | +++ (activity was measured to be less than or equal to 0.7 μM) | 55 to 70% | +++ (activity was measured to be less than or equal to 0.1 μM) | 
COc1ccc(N2CCC(N3CCC4(CC3)CN(C(=O)N(C)C)c3ccc(F)cc34)CC2)cc1 [compound 442] | 65 to 85% |  | 55 to 70% |  | M1 Activity ([1]; compound nos. 1-454): ++ (activity was measured to be between 0.7 μM and 3.0 μM); M4 Activity ([2]; compound nos. 1-454): ++ (activity was measured to be between 0.1 μM and 4.0 μM)
CC(=O)N1CC2(CCN(CC3CCN(C(=O)O[C@@H]4CCOC4)CC3)CC2)c2cc(C)ccc21 [compound 403] | 65 to 85% |  | < 55% |  | M1 Activity ([1]; compound nos. 1-454): +++ (activity was measured to be less than or equal to 0.7 μM); M4 Activity ([2]; compound nos. 1-454): + (activity was measured to be greater than or equal to 4.0 μM)
CCOC(=O)N[C@H]1CC2(CCN(C[C@H]3C[C@H]4CC[C@H]3C4)CC2)c2ccccc21 [compound 326] | < 65% | + (activity was measured to be greater than or equal to 3.0 μM) | < 55% | + (activity was measured to be greater than or equal to 4.0 μM) | 
CN(C)C(=O)N1CC2(CCN(CC3CCN(c4cnccn4)C3)CC2)c2cc(F)ccc21 (centres unmarked) [compound 449] |  |  |  |  | M1 Activity ([1]; compound nos. 1-454): +++ (activity was measured to be less than or equal to 0.7 μM); M1 Efficacy ([1]; compound nos. 1-454): ++ (efficacy was calculated to be between 85% and 65%); M4 Activity ([2]; compound nos. 1-454): +++ (activity was measured to be less than or equal to 0.1 μM); M4 Efficacy ([2]; compound nos. 1-454): ++ (efficacy was calculated to be between 70% and 55%)
CN(C)C(=O)N1CC2(CCN(C3CCN(c4nccnc4C#N)CC3)CC2)c2cc(F)ccc21 [compound 480] |  |  |  |  | Emax ([1]; compound nos. 455-509): 25 to 100%; M1 Activity ([1]; compounds 455-509): ++ (activity was measured to be between 2.0 μM and 5.0 μM); Emax ([2]; compound nos. 455-509): 25 to 100%; M4 Activity ([2]; compounds 455-509): ++ (activity was measured to be between 2.0 μM and 5.0 μM)
CN(C)C(=O)N1CC2(CCN(CC3CCN(c4cnccn4)C3)CC2)c2cc(F)ccc21 (centres unmarked) [compound 448] | > 85% |  | 55 to 70% |  | M1 Activity ([1]; compound nos. 1-454): +++ (activity was measured to be less than or equal to 0.7 μM); M4 Activity ([2]; compound nos. 1-454): +++ (activity was measured to be less than or equal to 0.1 μM)
CCCOC(=O)N1C2CCC1CC(N1CCC3(CC1)CN(S(C)(=O)=O)c1ccc(F)cc13)C2 (centres unmarked) [compound 294] | > 85% | ++ (activity was measured to be between 0.7 μM and 3.0 μM) | 55 to 70% | ++ (activity was measured to be between 0.1 μM and 4.0 μM) | 
CN(C)C(=O)N1CC2(CCN(C3CC4CCC(C3)N4C(=O)OCCF)CC2)c2cc(F)ccc21 (centres unmarked) [compound 32] | > 85% | +++ (activity was measured to be less than or equal to 0.7 μM) | 55 to 70% | +++ (activity was measured to be less than or equal to 0.1 μM) | 
CN([C@H]1CC2(CCN(C[C@H]3C[C@H]4CC[C@H]3C4)CC2)c2ccccc21)S(C)(=O)=O [compound 357] | < 65% | ++ (activity was measured to be between 0.7 μM and 3.0 μM) | < 55% | + (activity was measured to be greater than or equal to 4.0 μM) | 
CCNC(=O)N1C2CCC1CC(N1CCC3(CC1)COc1ccc(F)cc13)C2 (centres unmarked) [compound 219] | 65 to 85% | + (activity was measured to be greater than or equal to 3.0 μM) | < 55% | + (activity was measured to be greater than or equal to 4.0 μM) | 
CC(=O)N1CC2(CCN(C3CCCN(C(=O)OCCF)CC3)CC2)c2cc(F)ccc21 (centres unmarked) [compound 168] |  | ++ (activity was measured to be between 0.7 μM and 3.0 μM) | > 70% | ++ (activity was measured to be between 0.1 μM and 4.0 μM) | 
Clc1ccc2c(c1)C1(CCN(CC3CCCCC3)CC1)CN2 [compound 157] | 65 to 85% | +++ (activity was measured to be less than or equal to 0.7 μM) | > 70% | + (activity was measured to be greater than or equal to 4.0 μM) | 
